Experimental findings from ChEMBL document CHEMBL1159178, “The use of a proline ring as a conformational restraint in CCK-B receptor dipeptoids” (Bioorg Med Chem Lett, 1992) are described below.

Assay [1] has as its target T1, Cholecystokinin receptor type A (Rattus norvegicus, UniProt P30551).
T1 sequence (P30551 whole entry): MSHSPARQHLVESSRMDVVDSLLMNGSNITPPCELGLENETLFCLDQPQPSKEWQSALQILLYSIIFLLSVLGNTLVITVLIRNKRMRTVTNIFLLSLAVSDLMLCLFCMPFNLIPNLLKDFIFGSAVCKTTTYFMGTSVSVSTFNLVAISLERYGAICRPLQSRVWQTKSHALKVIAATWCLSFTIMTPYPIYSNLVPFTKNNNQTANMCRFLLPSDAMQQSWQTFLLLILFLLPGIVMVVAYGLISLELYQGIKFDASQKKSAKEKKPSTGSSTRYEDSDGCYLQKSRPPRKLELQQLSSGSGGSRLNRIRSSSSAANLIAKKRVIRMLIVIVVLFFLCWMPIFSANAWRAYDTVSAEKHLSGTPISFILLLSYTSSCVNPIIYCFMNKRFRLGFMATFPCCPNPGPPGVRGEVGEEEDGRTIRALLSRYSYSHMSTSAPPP
In words: Evaluated for in vitro binding affinity to cholecystokinin-A (CCK-A) receptor in homogenized rat pancreas using [125I]bolton hunter CCK-26-33 as radioligand; 770-2020.

The target in assay [2] is T2, Gastrin/cholecystokinin type B receptor (Mus musculus, UniProt P56481).
T2 sequence (P56481 whole entry): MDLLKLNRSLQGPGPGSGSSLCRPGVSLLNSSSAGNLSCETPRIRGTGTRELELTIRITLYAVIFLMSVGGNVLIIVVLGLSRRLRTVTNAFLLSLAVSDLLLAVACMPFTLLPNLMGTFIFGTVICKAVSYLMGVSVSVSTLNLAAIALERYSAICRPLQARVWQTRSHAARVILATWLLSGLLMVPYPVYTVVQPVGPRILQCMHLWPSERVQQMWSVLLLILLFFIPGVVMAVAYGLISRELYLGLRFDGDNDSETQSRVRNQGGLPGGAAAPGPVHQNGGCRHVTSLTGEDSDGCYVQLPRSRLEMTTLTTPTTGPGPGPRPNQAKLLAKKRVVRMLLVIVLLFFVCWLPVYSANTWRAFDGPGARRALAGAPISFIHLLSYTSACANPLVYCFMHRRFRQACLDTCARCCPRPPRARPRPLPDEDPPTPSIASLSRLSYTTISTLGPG
Description: Evaluated for in vitro binding affinity towards cholecystokinin-B (CCK-B) receptor in mouse cerebral cortex using [125I]bolton hunter CCK-26-33 as radioligand; 365-1590. The format is tissue-based.

Assay [3] addresses T1, Cholecystokinin receptor type A. In words: Evaluated for in vitro binding affinity to cholecystokinin-A (CCK-A) receptor in homogenized rat pancreas using [125I]bolton hunter CCK-26-33 as radioligand; 690-850.
In assay [4] the target is T2, Gastrin/cholecystokinin type B receptor. Description: Evaluated for in vitro binding affinity towards cholecystokinin-B (CCK-B) receptor in mouse cerebral cortex using [125I]bolton hunter CCK-26-33 as radioligand; 4.2-8.9. The format is tissue-based.
Assay [5] has the same target. Description: Evaluated for in vitro binding affinity towards cholecystokinin-B (CCK-B) receptor in mouse cerebral cortex using [125I]bolton hunter CCK-26-33 as radioligand; 1790-2700. The format is tissue-based.
For assay [6], the target named is T1, Cholecystokinin receptor type A. In words: Evaluated for in vitro binding affinity to cholecystokinin-A (CCK-A) receptor in homogenized rat pancreas using [125I]bolton hunter CCK-26-33 as radioligand; 743-1710.

As usually defined, the IC50 is the concentration needed to halve the response being measured. A lower IC50 goes with greater potency. With `CC(Cc1c[nH]c2ccccc12)(NC(=O)OC1C2CC3CC(C2)CC1C3)C(=O)NC(CO)Cc1ccccc1` (stereo unspecified), the IC50 in assay [1] is 1080 nM; in assay [2], 852 nM.
Turning to `O=C(NC(Cc1c[nH]c2ccccc12)C(=O)NC(CO)Cc1ccccc1)OC1C2CC3CC(C2)CC1C3` (stereo unspecified), the IC50 was found to be 780 nM in assay [3] and 6.3 nM in assay [4].
With `O=C(OC1C2CC3CC(C2)CC1C3)N1CCCC1(Cc1c[nH]c2ccccc12)C(=O)NC(CO)Cc1ccccc1` (stereo unspecified), the half-maximal inhibitory concentration (IC50) in assay [5] was found to be 2080 nM; in assay [6], 1050 nM.
